Laboratory results taken from patent publication US11564394B2, “Distorted gold (I)-phosphine complexes and methods for use as antifungal agents” (University of Kentucky Research Foundation, priority 2019, dated 2023).
Like-named read-outs stand apart in the source and are kept apart here.

Tests used:
Test in all cases: MIC determination (broth microdilution)
Type in all cases: cell-based, Candida auris
Settings in all cases: Candidozyma auris
[1] = tested on: C. auris AR Bank # 0384 (strain K)
[2] = tested on: C. auris AR Bank # 0389 (strain VIII)
[3] = tested on: C. auris AR Bank # 0385 (strain IV)
[4] = tested on: C. auris AR Bank # 0388 (strain VII)
[5] = tested on: C. auris AR Bank # 0381 (strain I)
[6] = tested on: C. auris AR Bank # 0382 (strain II)
[7] = tested on: C. auris AR Bank # 0387 (strain VI)
[8] = tested on: C. auris AR Bank # 0386 (strain V)
[9] = tested on: C. auris AR Bank # 0390 (strain L)
[10] = tested on: C. auris AR Bank # 0383 (strain III)
[11] = strain K = C. auris AR Bank # 0384, MIC-2, read-out: MIC (MIC-2 for azoles)
[12] = strain K = C. auris AR Bank # 0384, MIC-2, read-out: MIC (MIC-2 for azoles, in parentheses)
[13] = strain VIII = C. auris AR Bank # 0389, MIC-2, read-out: MIC (MIC-2 for azoles)
[14] = strain VIII = C. auris AR Bank # 0389, MIC-2, read-out: MIC (MIC-2 for azoles, in parentheses)
[15] = strain IV = C. auris AR Bank # 0385, MIC-2, read-out: MIC (MIC-2 for azoles)
[16] = strain IV = C. auris AR Bank # 0385, MIC-2, read-out: MIC (MIC-2 for azoles, in parentheses)
[17] = strain VII = C. auris AR Bank # 0388, MIC-2, read-out: MIC (MIC-2 for azoles)
[18] = strain VII = C. auris AR Bank # 0388, MIC-2, read-out: MIC (MIC-2 for azoles, in parentheses)
[19] = strain I = C. auris AR Bank # 0381, MIC-2, optical density at 600 nm, read-out: MIC (MIC-2 for azoles)
[20] = strain I = C. auris AR Bank # 0381, MIC-2, optical density at 600 nm, read-out: MIC (MIC-2 for azoles, in parentheses)
[21] = strain II = C. auris AR Bank # 0382, MIC-2, read-out: MIC (MIC-2 for azoles)
[22] = strain II = C. auris AR Bank # 0382, MIC-2, read-out: MIC (MIC-2 for azoles, in parentheses)
[23] = strain VI = C. auris AR Bank # 0387, MIC-2, read-out: MIC (MIC-2 for azoles)
[24] = strain VI = C. auris AR Bank # 0387, MIC-2, read-out: MIC (MIC-2 for azoles, in parentheses)
[25] = strain V = C. auris AR Bank # 0386, MIC-2, read-out: MIC (MIC-2 for azoles)
[26] = strain V = C. auris AR Bank # 0386, MIC-2, read-out: MIC (MIC-2 for azoles, in parentheses)
[27] = strain L = C. auris AR Bank # 0390, MIC-2, read-out: MIC (MIC-2 for azoles)
[28] = strain L = C. auris AR Bank # 0390, MIC-2, read-out: MIC (MIC-2 for azoles, in parentheses)

MIC [1, 11] [µg/mL]	MIC [1, 12] [µM]	MIC [2, 13] [µg/mL]	MIC [2, 14] [µM]	MIC [3, 15] [µg/mL]	MIC [3, 16] [µM]	MIC [4, 17] [µg/mL]	MIC [4, 18] [µM]	MIC [5, 19] [µg/mL]	MIC [5, 20] [µM]	MIC [6, 21] [µg/mL]	MIC [6, 22] [µM]	MIC [7, 23] [µg/mL]	MIC [7, 24] [µM]	MIC [8, 25] [µg/mL]	MIC [8, 26] [µM]	MIC [9, 27] [µg/mL]	MIC [9, 28] [µM]	SMILES	also measured
																		CC[C@H](C)C[C@H](C)CCCCCCCCC(=O)N[C@H]1C[C@@H](O)[C@@H](NCCN)NC(=O)[C@@H]2[C@@H](O)CCN2C(=O)[C@H]([C@H](O)CCN)NC(=O)[C@H]([C@H](O)[C@@H](O)c2ccc(O)cc2)NC(=O)[C@@H]2C[C@@H](O)CN2C(=O)[C@H]([C@@H](C)O)NC1=O [CAS, caspofungin]	MIC [1]: 1.95 µg/mL; MIC ([1]; read-out: MIC (in parentheses)): 1.8 µM; MIC [2]: 7.8 µg/mL; MIC ([2]; read-out: MIC (in parentheses)): 7.1 µM; MIC [3]: < 0.98 µg/mL; MIC ([3]; read-out: MIC (in parentheses)): < 0.9 µM; MIC [4]: 31.3 µg/mL; MIC ([4]; read-out: MIC (in parentheses)): 28.6 µM; MIC [5]: < 0.98 µg/mL; MIC ([5]; read-out: MIC (in parentheses)): < 0.9 µM; MIC [6]: < 0.98 µg/mL; MIC ([6]; read-out: MIC (in parentheses)): < 0.9 µM; MIC [7]: 31.3 µg/mL; MIC ([7]; read-out: MIC (in parentheses)): 28.6 µM; MIC [8]: 7.8 µg/mL; MIC ([8]; read-out: MIC (in parentheses)): 7.1 µM; MIC [9]: 7.8 µg/mL; MIC ([9]; read-out: MIC (in parentheses)): 7.1 µM; MIC [10]: 1.95 µg/mL; MIC ([10]; read-out: MIC (in parentheses)): 1.8 µM
31.3	102	> 62.5	> 204	> 62.5	> 204	> 62.5	> 204	0.49	1.6	0.49	1.6	0.98	3.2	> 62.5	> 204	> 62.5	> 204	OC(Cn1cncn1)(Cn1cncn1)c1ccc(F)cc1F [FLC, fluconazole]	
0.24	0.7	0.98	2.8	3.9	11.2	0.49	1.4	0.06	0.2	0.06	0.2	0.06	0.2	3.9	11.2	0.49	1.4	C[C@@H](c1ncncc1F)[C@](O)(Cn1cncn1)c1ccc(F)cc1F [VRC, voriconazole]	MIC ([10]; strain III = C. auris AR Bank # 0383, MIC-2, read-out: MIC (MIC-2 for azoles)): 1.95 µg/mL; MIC ([10]; strain III = C. auris AR Bank # 0383, MIC-2, read-out: MIC (MIC-2 for azoles, in parentheses)): 5.6 µM
